The values that follow come from PubChem BioAssay (NCI).

Each structure is given as a SMILES string.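 1) Cells in 96-well plates. 2) Compound, 48 h, 5 concentrations. 3) Linear interpolation between surrounding doses. 4) Unreached endpoint = highest concentration. GI50 = concentration required for 50% inhibition of growth. The concentration for full growth arrest is given as TGI.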

Some test systems named below: DU-145 prostate; LOX IMVI melanoma; MDA-N; NCI-H460 lung; OVCAR-3 ovarian; SNB-19 CNS; SNB-75 CNS; SW-620 colon; UACC-62 melanoma; RPMI-8226 leukemia.
Common to all, as to assay: inhibition of tumour cell growth, NCI panel, 48 h

With `CN(C)CCCn1c(Cc2ccccc2)nc2cc(C(F)(F)F)ccc21`, the TGI in the assay on DU-145 prostate is over 100 µM; in the assay on LOX IMVI melanoma, 35.6 µM; with MDA-N, 33.1 µM; with NCI-H460 lung, 43.2 µM; in the assay with OVCAR-3 ovarian, over 100 µM; with SNB-19 CNS, 86.9 µM. Also, the TGI in the assay on SNB-75 CNS is over 100 µM; with SW-620 colon it was 75.2 µM; in the assay with UACC-62 melanoma, 34.4 µM.

With `COC(c1ccsc1)C(C#N)(C#N)N=Cc1ccsc1` (stereo not drawn), the TGI in the assay with DU-145 prostate amounted to 28.5 µM; in the assay on LOX IMVI melanoma, 22 µM; in the assay with MDA-N, 33.4 µM; in the assay with NCI-H460 lung, 45.4 µM; with OVCAR-3 ovarian it was 42.2 µM; in the assay on SNB-19 CNS, 55.3 µM. Besides, the TGI with SNB-75 CNS amounted to 29.9 µM; with SW-620 colon it was 28.4 µM; with UACC-62 melanoma, 28.7 µM.

`CC(=O)Nc1ccc(S(=O)(=O)Nc2nnc(S(N)(=O)=O)s2)cc1`: the TGI with DU-145 prostate, in the assay with LOX IMVI melanoma, in the assay with NCI-H460 lung, in the assay on RPMI-8226 leukemia, in the assay with SNB-19 CNS and in the assay on SNB-75 CNS was over 100 µM each time. The TGI in the assay on SW-620 colon and in the assay with UACC-62 melanoma was over 100 µM each time.

Turning to `CCCCC/C=C1/CC(CO)(COC(=O)CC(C(C)C)C(C)C)OC1=O` (stereo not drawn), the TGI with DU-145 prostate is 27.8 µM; with MDA-N, 17 µM; in the assay with NCI-H460 lung, over 100 µM; in the assay on OVCAR-3 ovarian, 32.7 µM; in the assay with SNB-19 CNS, 21.2 µM; in the assay with SNB-75 CNS, 22.6 µM. Further, the figures for the TGI in the assay with SW-620 colon and in the assay on UACC-62 melanoma were 50.8 µM and 29.6 µM, respectively.

As for `CCOC(=O)c1c(SC(=O)c2cc(OC)c(OC)c(OC)c2)n(-c2ccccc2)c(=S)n(-c2ccccc2)c1=O`, the TGI in the assay with DU-145 prostate, in the assay with LOX IMVI melanoma, with MDA-N, with NCI-H460 lung, in the assay on OVCAR-3 ovarian and in the assay with SNB-19 CNS was over 100 µM each time. Also, the TGI with SNB-75 CNS, in the assay on SW-620 colon and with UACC-62 melanoma was over 100 µM each time.

Turning to `CC(C)OC(=O)c1ccc(NCC2=CC(=O)C=CC2=O)cc1Cl`, the TGI in the assay on DU-145 prostate is 42.3 µM; with LOX IMVI melanoma, 35.6 µM; in the assay on MDA-N it was 25.2 µM; in the assay with NCI-H460 lung, 41 µM; in the assay on OVCAR-3 ovarian it was over 45.9 µM; in the assay with SNB-19 CNS it was 44.2 µM. The TGI is over 70.3 µM with SNB-75 CNS, over 53.5 µM in the assay on SW-620 colon and 30.1 µM in the assay with UACC-62 melanoma.

`O=C1C=Cc2c(Cl)sc(Cl)c21`: the TGI in the assay on DU-145 prostate is 5.29 µM; in the assay on LOX IMVI melanoma, 1.89 µM; with NCI-H460 lung, 45.2 µM; in the assay with RPMI-8226 leukemia, 4.02 µM; with SNB-19 CNS it was 19.8 µM; with SNB-75 CNS, 13.1 µM. The TGI in the assay on UACC-62 melanoma was determined as 8.64 µM.

Turning to `Cc1cc(O)c(C(C)C)cc1NC(=O)Nc1cccc2ccccc12`, the TGI in the assay with DU-145 prostate came to 28.3 µM; in the assay with LOX IMVI melanoma, 49.9 µM; in the assay with MDA-N, 27.6 µM; in the assay with NCI-H460 lung it was 41.4 µM; in the assay with OVCAR-3 ovarian it was 40.2 µM; in the assay with SNB-19 CNS it was 30.2 µM. In addition, the TGI with SW-620 colon is over 100 µM; with UACC-62 melanoma, 25.9 µM.

In the case of `CSc1nc2ccccc2c(=O)n1/N=C1\C(=O)N(CN2CCOCC2)c2ccc(Cl)cc21`, the TGI in the assay with DU-145 prostate is 63.6 µM; with LOX IMVI melanoma it was 33.3 µM; in the assay with MDA-N it was over 100 µM; with NCI-H460 lung it was 43.4 µM; with OVCAR-3 ovarian, over 100 µM; in the assay with SNB-19 CNS it was over 100 µM. Further, the figures for the TGI in the assay on SNB-75 CNS, with SW-620 colon and with UACC-62 melanoma were over 100 µM, over 100 µM and 61.3 µM, respectively.

As to `CO/C(=N\N=C\c1ccc(Cl)cc1)c1ccncc1`, the TGI in the assay with NCI-H460 lung, in the assay with OVCAR-3 ovarian, with RPMI-8226 leukemia, in the assay on SNB-19 CNS, in the assay on SNB-75 CNS and in the assay on SW-620 colon was over 100 µM throughout. The molecule also came in with a TGI in the assay with UACC-62 melanoma of over 100 µM.

On to `CC(=O)Nc1ccc2c(C(=O)O)c(C)c(=O)[nH]c2n1`, for which the TGI in the assay with DU-145 prostate, in the assay with MDA-N, in the assay with NCI-H460 lung, in the assay on RPMI-8226 leukemia, in the assay with SNB-19 CNS and with SW-620 colon was over 100 µM each time. This molecule also came in with a TGI with UACC-62 melanoma of over 100 µM.

`CN(C)N=Nc1ccc([N+](=O)[O-])cc1C(N)=O`: the TGI in the assay on LOX IMVI melanoma, in the assay with NCI-H460 lung, with OVCAR-3 ovarian, with RPMI-8226 leukemia, with SNB-19 CNS and in the assay on SNB-75 CNS was over 100 µM each time. The TGI with SW-620 colon and in the assay on UACC-62 melanoma was over 100 µM in each case.

`Cc1c(CNc2ccc(Cl)c(C(=O)NC(CC(=O)O)C(=O)O)c2)ccc2nc(N)nc(N)c12` (stereo not drawn): the GI50 is 0.594 µM in the assay with DU-145 prostate, 16.8 µM in the assay with OVCAR-3 ovarian, 0.382 µM in the assay with SNB-19 CNS and 122 µM with SNB-75 CNS. The TGI in the assay on DU-145 prostate is over 1000 µM; in the assay on LOX IMVI melanoma, over 1000 µM; in the assay with MDA-N, over 1000 µM; with NCI-H460 lung it was 323 µM; in the assay on OVCAR-3 ovarian, over 1000 µM; in the assay on SNB-19 CNS it was over 1000 µM. Besides, the TGI with SNB-75 CNS, with SW-620 colon and in the assay with UACC-62 melanoma was over 1000 µM each time.

Consider `CC(C)(C)C#C[P+](c1ccccc1)(c1ccccc1)c1ccccc1`, for which the TGI in the assay on LOX IMVI melanoma worked out at 1.4 µM; with NCI-H460 lung, 0.475 µM; in the assay with OVCAR-3 ovarian, 1.32 µM; with RPMI-8226 leukemia, 0.212 µM; in the assay with SNB-19 CNS it was 1.51 µM; in the assay on SNB-75 CNS it was 0.553 µM. Besides, the results for the TGI in the assay with SW-620 colon and in the assay with UACC-62 melanoma were 0.843 µM and 0.979 µM, respectively.

Regarding `CCSc1ncnc2c(C3OC(CO)C(O)C3O)nsc12` (stereo not drawn), the TGI with DU-145 prostate, with LOX IMVI melanoma, in the assay with MDA-N, in the assay on OVCAR-3 ovarian, with SNB-75 CNS and in the assay on SW-620 colon was over 100 µM throughout.

Regarding `Oc1ccc2c(c1)-c1c(c3cc(O)ccc3n1CCN1CCOCC1)CC2`, the TGI in the assay on DU-145 prostate is over 100 µM; with LOX IMVI melanoma, 35.7 µM; in the assay with OVCAR-3 ovarian it was 61.8 µM; in the assay on RPMI-8226 leukemia, over 100 µM; in the assay with SNB-19 CNS it was over 100 µM; with SNB-75 CNS it was 58.5 µM. The TGI is 71.2 µM in the assay with SW-620 colon and 32.9 µM with UACC-62 melanoma.
